The text below walks through data of PMC6278857, “Anaerobic Degradation of the Plant Sugar Sulfoquinovose Concomitant With H2S Production: Escherichia coli K-12 and Desulfovibrio sp. Strain DF1 as Co-culture Model” (Frontiers in Microbiology, 2018).

The experiment has as its system T1, DhpA (DHPS dehydrogenase).
T1 construct: full-length gene, N-terminal His-tag (pET28a), from E. coli Rosetta 2 DE3
Description: initial rate of NADH formation at […] nm. Type of experiment: biochemical, Desulfovibrio sp. DF1. As to conditions: 10 mM NAD+, 50 mM Tris-HCl, pH 9.5; racemic substrate; read-out: Kmapp.

For `O=S(=O)(O)CC(O)CO` (racemic) [DHPS], the Km was 36 ± 4 µM.
